This note sets out measurements from ChEMBL document CHEMBL4665762, “Conosiligins A-D, Ring-Rearranged Tremulane Sesquiterpenoids from Conocybe siliginea” (J Nat Prod, 2020).

This experiment in a line: Inhibition of Con A-induced BALB/c mouse T cell proliferation after 48 hrs by [3H]-thymidine incorporation assay. Format: functional, tissue-based.

Compound `C[C@@H]1C(=O)C2=C(COC2=O)[C@@H]2C[C@@](C)(CO)C[C@H]12` registered an IC50 of 12.3 µM.
The figure for `C[C@@]12CO[C@]3(C1)c1coc(=O)cc1O[C@H](CO)[C@H]3C2` is 6.6 µM.
